Measured values taken from ChEMBL document CHEMBL1134170, “Securiosides A and B, novel acylated triterpene bisdesmosides with selective cytotoxic activity against M-CSF-stimulated macrophages” (Bioorg Med Chem Lett, 2001).
Active and inactive are the calls of the source. No cut-off for these calls is given here.

Legend:
[1] = species: Ovis aries; test: Ability to hemolyze sheep erythrocytes and induce change in macrophage morphology and DNA fragmentation at a concentration of 10 ug/mL; inactive; assay type: functional
[2] = species: Mus musculus; test: Cytotoxic activity against M-CSF-stimulated macrophages (from male mice); assay type: functional

For `COc1ccc(/C=C/C(=O)O[C@H]2[C@@H](O[C@H]3O[C@H](COC(C)=O)[C@H](O)[C@H](O)[C@H]3O)[C@@H](O[C@H]3O[C@H](C)[C@@H](O[C@H]4OC[C@H](O)[C@H](O)[C@H]4O)[C@@H](O)[C@@H]3O)[C@H](OC(=O)[C@]34CCC(C)(C)C[C@H]3C3=CC[C@@H]5[C@@]6(C)C[C@H](O)[C@H](O[C@@H]7O[C@@H](CO)[C@@H](O)[C@H](O)[C@@H]7O)[C@@](C)(C(=O)O)C6CC[C@@]5(C)[C@]3(CO)CC4)O[C@@H]2C)cc1OC` (some centres undefined) [SECURIOSIDE A], the Hemolysis [1] was “inactive” and the IC50 [2] was < 250 nM.
In the case of `COc1ccc(/C=C/C(=O)O[C@H]2[C@H](O)[C@@H](O[C@H]3O[C@H](C)[C@@H](O[C@H]4OCC(O[C@H]5O[C@H](CO)[C@@H](O)[C@@H](O)[C@H]5O)C(O[C@H]5O[C@H](CO)[C@H](O)[C@@H](O)[C@H]5O)[C@H]4O)[C@@H](O)[C@@H]3O)[C@@H](OC(=O)[C@]34CCC(C)(C)C[C@H]3C3=CC[C@@H]5[C@@]6(C)C[C@H](O)[C@H](O[C@@H]7O[C@@H](CO)[C@@H](O)[C@H](O)[C@@H]7O)[C@@](C)(C(=O)O)C6CC[C@@]5(C)[C@]3(CO)CC4)O[C@@H]2C)cc1OC` (some centres undefined) [SECURIOSIDE B], the Hemolysis [1] is reported as “inactive” and the IC50 [2] is reported as < 250 nM.
